The source of these data is ChEMBL document CHEMBL1138960 (Bioorg Med Chem Lett, 2006).

The IC50 is the concentration that inhibits the measured activity by half. A lower IC50 goes with greater potency. One may read the solubility as the concentration that dissolves in the medium under given conditions. A high value points to a readily soluble substance. One may read the AUC as concentration integrated over time. As a reminder, the Tmax is the time from dosing to the highest level. A word on the half-life: it is the time needed for the level to fall by half in the phase considered. In general, bioavailability refers to dose-corrected exposure relative to a reference, in per cent. High values mean much systemic uptake, low ones little systemic uptake.

Structures are written as SMILES. Converted amounts (≈) assume the structure as drawn. The source made the active and inactive calls.

In data set [1] the test system is A-375. As to the kind of experiment: Antitumor activity in human melanoma A375 cell line using tumor xenograft model after 28 days at 100 mg/kg, ip. Format: functional, organism-based. Details: dose 100 mg/kg. (In general: Xenograft models place foreign cells or tissue in a host animal.)
In data set [2] the test system is Rattus norvegicus. As to the kind of experiment: Conversion of prodrug to parent in rat at 3 mg/kg, iv [100*AUC (JNJ-7706621) / AUC (prodrug)]. Details: dose 3 mg/kg, route intravenous. To be noted: in vivo. Format: ADME, organism-based.
Data set [3] concerns the target Cyclin-dependent kinase 2 (Homo sapiens, UniProt P24941). The experiment in a line: Inhibition of CDK2.
The test system of data set [4] is HeLa. The experiment in a line: Antiproliferative activity against human HeLa cells. Format: functional, cell-based.
Data set [5] concerns HCT-116. As to the kind of experiment: Antiproliferative activity against human HCT116 cells. Format: functional, cell-based.
Data set [6] deals with A-375. As to the kind of experiment: Antiproliferative activity against human A375 cells. The class given is functional, cell-based.
The nature of data set [7]: Solubility at pH 2.0. Format: physicochemical. To be noted: buffer.
The nature of data set [8]: Solubility at pH 7.4. The class given is physicochemical. To be noted: buffer.
Data set [9] can be described thus: AUC in rat at 3 mg/kg, iv. Format: ADME, organism-based. The note with it: plasma. On the set-up: dose 3 mg/kg, route intravenous.
The nature of data set [10]: Tmax in rat. The class given is ADME, organism-based. The note with it: in vivo.
A short description of data set [11]: Half life in rat. To be noted: in vivo. The class given is ADME, organism-based.
In data set [12] the target is Cyclin-dependent kinase 1 (Homo sapiens, UniProt P06493). The experiment in a line: Inhibition of CDK1.
Data set [13] deals with Rattus norvegicus. The experiment in a line: AUC in rat after administration as its prodrug N-(4-(5-amino-1-(2,6-difluorobenzoyl)-1H-1,2,4-triazol-3-ylamino)phenylsulfonyl)-3-(4-methylpiperazin-1-yl)propanamide at 3 mg/kg, iv. Format: ADME, organism-based, Plasma. Details: dose 3 mg/kg, route intravenous. The note with it: in vivo.
Data set [14] deals with Rattus norvegicus. As to the kind of experiment: AUC in rat after administration as its prodrug 2-amino-N-(4-(5-amino-1-(2,6-difluorobenzoyl)-1H-1,2,4-triazol-3-ylamino)phenylsulfonyl)acetamide at 3 mg/kg, iv. The class given is ADME, organism-based, Plasma. Details: dose 3 mg/kg, route intravenous. To be noted: in vivo.
Data set [15] has as its system Rattus norvegicus. As to the kind of experiment: AUC in rat after administration as its prodrug N-(4-(5-amino-1-(2,6-difluorobenzoyl)-1H-1,2,4-triazol-3-ylamino)phenylsulfonyl)-2-(2-methoxyethoxy)acetamide at 3 mg/kg, iv. On the set-up: dose 3 mg/kg, route intravenous. Format: ADME, organism-based, Plasma. The note with it: in vivo.
For data set [16], the system named is Rattus norvegicus. The experiment in a line: AUC in rat after administration as its prodrug ethyl 4-(4-(5-amino-1-(2,6-difluorobenzoyl)-1H-1,2,4-triazol-3-ylamino)phenylsulfonamido)-4-oxobutanoate at 3 mg/kg, iv. The class given is ADME, organism-based, Plasma. The note with it: in vivo. On the set-up: dose 3 mg/kg, route intravenous.
The test system of data set [17] is Rattus norvegicus. The experiment in a line: AUC in rat after administration as its prodrug (R)-2-amino-N-(4-(5-amino-1-(2,6-difluorobenzoyl)-1H-1,2,4-triazol-3-ylamino)phenylsulfonyl)-3-hydroxypropanamide at 3 mg/kg, iv. Details: dose 3 mg/kg, route intravenous. Format: ADME, organism-based, Plasma. To be noted: in vivo.
A short description of data set [18]: Oral bioavailability in nude mice. The note with it: mouse, in vivo. Format: ADME, organism-based.
Data set [19] in a line: Oral bioavailability in rat. Format: ADME, organism-based. The note with it: in vivo.
Data set [20] has as its system A-375. The experiment in a line: Antitumor activity in human melanoma A375 cell line using tumor xenograft model at 100 mg/kg, ip. The class given is functional. The note with it: A-375, ip, route intraperitoneal, read-out: TGI.
Data set [21] deals with Rattus norvegicus. As to the kind of experiment: AUC in rat after administration as its prodrug N-(4-(5-amino-1-(2,6-difluorobenzoyl)-1H-1,2,4-triazol-3-ylamino)phenylsulfonyl)-3-morpholinopropanamide at 3 mg/kg, iv. Format: ADME, organism-based, Plasma. On the set-up: dose 3 mg/kg, route intravenous. To be noted: in vivo.
Data set [22] concerns Rattus norvegicus. The experiment in a line: AUC in rat after administration as its prodrug 4-(4-(5-amino-1-(2,6-difluorobenzoyl)-1H-1,2,4-triazol-3-ylamino)phenylsulfonamido)-4-oxobutanoic acid at 3 mg/kg, iv. Format: ADME, organism-based, Plasma. Details: dose 3 mg/kg, route intravenous. The note with it: in vivo.

Sequence of Cyclin-dependent kinase 1 (P06493 whole entry): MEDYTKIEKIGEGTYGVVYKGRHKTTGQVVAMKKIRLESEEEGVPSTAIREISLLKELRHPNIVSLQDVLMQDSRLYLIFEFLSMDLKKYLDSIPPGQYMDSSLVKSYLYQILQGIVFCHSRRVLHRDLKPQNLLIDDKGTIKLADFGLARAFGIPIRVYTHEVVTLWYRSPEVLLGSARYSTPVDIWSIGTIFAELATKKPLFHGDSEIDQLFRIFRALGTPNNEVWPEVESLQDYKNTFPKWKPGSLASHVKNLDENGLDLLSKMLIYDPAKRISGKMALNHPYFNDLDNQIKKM

Regarding `Nc1nc(Nc2ccc(S(=O)(=O)NC(=O)CCC(=O)O)cc2)nn1C(=O)c1c(F)cccc1F`, the result in data set [1] was inactive. The Activity in [2] is 38%. Also, the IC50 in data set [3] was 0.071 µM; in data set [4] it was 31.9 µM; in data set [5], above 100 µM; in [6], 20.2 µM. Moreover, the results for the solubility in data set [7] and in data set [8] were 0.7 µg/mL (≈ 1.42 µM) and above 1000 µg/mL, respectively. This molecule also came in with an AUC in data set [9] of 47 µM·h. Also, the Tmax in data set [10] came to 4.8 min. The half-life in data set [11] is 9.6 min.

`Nc1nc(Nc2ccc(S(=O)(=O)NC(=O)[C@H](N)CO)cc2)nn1C(=O)c1c(F)cccc1F`: in [2], the Activity turned out to be 8%. The IC50 is 1.41 µM in data set [12]; 0.14 µM in data set [3]; 4.02 µM in data set [4]; 71.2 µM in [5]; above 10 µM in [6]. In addition, the values for the solubility in data set [7] and in data set [8] were 440 µg/mL (≈ 914 µM) and above 1000 µg/mL, respectively. In addition, in data set [9], the AUC is 8.15 µM·h. In [10], the Tmax is 4.8 min. The molecule also gave a half-life in data set [11] of 9.6 min.

In the case of `CCOC(=O)CCC(=O)NS(=O)(=O)c1ccc(Nc2nc(N)n(C(=O)c3c(F)cccc3F)n2)cc1`, in data set [2], the Activity is 40%. Also, the IC50 in data set [3] was 0.062 µM; in data set [4], 60.2 µM; in data set [5], 40.1 µM; in data set [6] it was above 10 µM. The solubility in [7] stood at 0.2 µg/mL (≈ 0.383 µM); in data set [8] it was 210 µg/mL (≈ 402 µM). In data set [9], this molecule had an AUC of 72.2 µM·h. For the same molecule, the Tmax in data set [10] was determined as 4.8 min. Further, in data set [11], the half-life was 9.6 min.

As for `CN1CCN(CCC(=O)NS(=O)(=O)c2ccc(Nc3nc(N)n(C(=O)c4c(F)cccc4F)n3)cc2)CC1`, the Activity in data set [2] is on record as 4%. Further, the IC50 was 0.266 µM in data set [3], above 100 µM in data set [4], above 10 µM in [5] and above 100 µM in data set [6]. Also, the results for the solubility in data set [7] and in data set [8] were above 1000 µg/mL and 820 µg/mL (≈ 1490 µM), respectively. This molecule also showed an AUC in data set [9] of 23.2 µM·h. In data set [10], the Tmax was determined as 4.8 min. In data set [11], the half-life was 9.6 min.

In the case of `COCCOCC(=O)NS(=O)(=O)c1ccc(Nc2nc(N)n(C(=O)c3c(F)cccc3F)n2)cc1`, the Activity in data set [2] came out at 18%. Further, the IC50 in data set [3] was 0.247 µM; in [4] it was above 10 µM; in data set [5], above 10 µM; in data set [6] it was above 100 µM. The solubility was 5.4 µg/mL (≈ 10.6 µM) in [7] and above 1000 µg/mL in data set [8]. In [9], the AUC amounted to 42.9 µM·h. Moreover, the Tmax in data set [10] was 4.8 min. The half-life in [11] was 9.6 min.

As to `Nc1nc(Nc2ccc(S(N)(=O)=O)cc2)nn1C(=O)c1c(F)cccc1F` [JNJ-7706621], the AUC in [13] was determined as 0.93 µM·h; in data set [14], 3.67 µM·h; in [15], 7.62 µM·h; in data set [16], 29.1 µM·h; in data set [17] it was 0.63 µM·h; in data set [21] it was 1.4 µM·h. Besides, the AUC in data set [22] was determined as 18 µM·h. Besides, the IC50 in data set [4] worked out at 0.284 µM; in data set [5], 0.254 µM; in data set [6], 0.447 µM. Besides, the solubility in data set [7] turned out to be 6 µg/mL (≈ 15.2 µM). Further, the bioavailability in data set [18] amounted to 2%; in data set [19], 8%. The inhibition in vivo at 100 mg/kg in [20] is 95%. Also, in [10], the Tmax amounted to 4.8 min. The molecule further had a half-life in [11] of 9.6 min.

In the case of `NCC(=O)NS(=O)(=O)c1ccc(Nc2nc(N)n(C(=O)c3c(F)cccc3F)n2)cc1`, the Activity in data set [2] worked out at 31%. In addition, the results for the IC50 in [4], in data set [5] and in data set [6] were 14.9 µM, 36.9 µM and 9.45 µM, respectively. Also, the solubility in [7] was determined as 130 µg/mL (≈ 288 µM); in data set [8] it was 200 µg/mL (≈ 443 µM). This molecule displayed an AUC in [9] of 11.8 µM·h. Moreover, in data set [10], the Tmax amounted to 4.8 min. The molecule also showed a half-life in [11] of 9.6 min.

For `Nc1nc(Nc2ccc(S(=O)(=O)NC(=O)CCN3CCOCC3)cc2)nn1C(=O)c1c(F)cccc1F`, the Activity in data set [2] is recorded as 7%. In addition, the IC50 in data set [3] is 0.118 µM; in [4], 20.9 µM; in data set [5] it was 50.8 µM; in [6], above 100 µM. Also, the solubility is 14 µg/mL (≈ 26.1 µM) in data set [7] and 4.7 µg/mL (≈ 8.78 µM) in data set [8]. The AUC in data set [9] is 20.5 µM·h. For the same molecule, in data set [10], the Tmax stood at 4.8 min. This molecule had a half-life in data set [11] of 9.6 min.
